For 2 molecules, transfer efficiency and Kd results are on record in paper doi:10.1101/2021.04.14.439284v2 (biorxiv, 2021).

The structures appear in SMILES notation.

In test [1] the target is T1, E. coli trehalose repressor TreR (Escherichia coli, UniProt P36673).
T1 sequence (P36673 1-315): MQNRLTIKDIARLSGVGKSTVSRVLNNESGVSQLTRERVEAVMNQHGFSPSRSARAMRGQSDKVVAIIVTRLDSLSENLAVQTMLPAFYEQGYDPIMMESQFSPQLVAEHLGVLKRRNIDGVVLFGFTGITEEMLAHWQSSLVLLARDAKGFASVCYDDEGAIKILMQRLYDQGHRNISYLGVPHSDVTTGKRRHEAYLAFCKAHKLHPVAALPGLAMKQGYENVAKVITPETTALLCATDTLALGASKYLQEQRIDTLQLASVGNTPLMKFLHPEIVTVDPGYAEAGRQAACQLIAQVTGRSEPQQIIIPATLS
Put plainly: uSTA saturation transfer NMR. It is filed as binding. The following applies: weak ligand.

The target in test [2] is T2, bovine serum albumin (BSA) (Bos taurus, UniProt P02769).
T2 construct: gene ALB; commercial native protein (Sigma Aldrich), non-modified
T2 sequence (P02769 25-607): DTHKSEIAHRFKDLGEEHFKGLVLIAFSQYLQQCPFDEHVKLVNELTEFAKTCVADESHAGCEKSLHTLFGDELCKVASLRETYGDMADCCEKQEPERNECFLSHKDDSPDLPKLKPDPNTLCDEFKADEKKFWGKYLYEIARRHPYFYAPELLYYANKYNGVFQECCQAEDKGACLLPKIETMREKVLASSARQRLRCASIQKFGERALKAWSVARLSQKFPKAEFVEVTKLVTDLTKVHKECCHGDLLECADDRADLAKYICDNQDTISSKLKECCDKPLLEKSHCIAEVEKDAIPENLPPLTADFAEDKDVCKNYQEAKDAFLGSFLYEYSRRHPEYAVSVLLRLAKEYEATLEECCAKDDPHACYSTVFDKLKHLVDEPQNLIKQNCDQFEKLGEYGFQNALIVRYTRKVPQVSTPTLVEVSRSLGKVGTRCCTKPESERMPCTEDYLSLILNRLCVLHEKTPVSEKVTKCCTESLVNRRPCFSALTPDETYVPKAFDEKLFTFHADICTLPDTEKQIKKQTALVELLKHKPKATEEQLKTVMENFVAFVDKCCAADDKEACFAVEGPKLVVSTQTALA
Put plainly: uSTA saturation transfer NMR, Bloch-McConnell fit. In kind it is binding.

Regarding `OC[C@H]1O[C@H](O[C@H]2O[C@H](CO)[C@@H](O)[C@H](O)[C@H]2O)[C@H](O)[C@@H](O)[C@@H]1O` [trehalose], in test [1], the transfer efficiency result is “trehalose (Tre) binds only weakly to trehalose repressor protein TreR”.
Usually Kd stands for the constant that tells how readily two partners part at equilibrium. Read a high Kd as a looser complex. With `N[C@@H](Cc1c[nH]c2ccccc12)C(=O)O` [L-tryptophan], in test [2], the Kd stood at 38 ± 15 µM.
